Measurements from patent US10695314B2, “Antimicrobial composition containing 7,10-epoxyoctadeca-7,9-dienoic acid as active ingredient” (priority 2016, dated 2020).
Converted amounts (≈) assume the structure as drawn. Like-named read-outs stand apart in the source and are kept apart here.

Columns and labels:
[1] = tested on: Staphylococcus aureus ATCC 29213; experiment: Agar disk diffusion analysis, zone of inhibition (ZOI); format: cell-based; details: strain 29213; for ZOI without 7.10-EODA: antibiotic ½×MIC alone; for ZOI with 7.10-EODA: antibiotic ½×MIC with 7,10-EODA ¼×MIC
Description: (§1) For synergy effect screening, a 0.1 mL aliquot of MRSA or MSSA strain (5×10^5 CFU/mL) cultured in a log-phase on TSA plates was inoculated. […] A disk including DMSO alone or 7,10-EODA alone (¼×MIC) was used as a control group. The plates were cultured under conditions of […] and 24 hours, and a synergistic effect was observed when the disk periphery including both antibiotic and 7,10-EODA was at least 5 mm in zone of inhibition (ZOI).
(§2) Specifically, the minimal inhibitory concentration (MIC) was measured according to the method of Experimental Example 4 above, and the degree of inhibition (Agar diffusion analysis) (zone of inhibition; ZOI) was measured according to the method of Experimental Example 5 above.

[2] = tested on: Staphylococcus aureus ATCC 29213; experiment: Minimal inhibitory concentration (MIC), broth microdilution per CLSI; format: cell-based; details: strain 29213 (ATCC 29213), antibiotic alone
Description: The minimum inhibitory concentration (MIC) of antibiotics and the activity of 7,10-EODA of the present invention against Staphylococcus aureus strains were measured according to the CLSI guideline (CLSI document M100-517, 2007). Specifically, each antibiotic or 7,10-EODA was diluted 2-fold (200-0.97 μg/mL) by adding MHB (Mueller-Hinton Broth) to a 96-well microtiter plate. In the mid-exponential phase (0.5 OD600), the culture was diluted 10-fold with MHB and 0.1 mL aliquots of the diluent were added to wells containing the serially diluted test reagent and cultured at 37° C. for 12 hours. About the end of the culture period, the cell density was measured at an optical density of 600 nm (OD600) using a […].
as §2

[3] = tested on: MDRSA 01ST001; experiment: as above
[4] = tested on: MDRSA 01ST001; experiment: Agar disk diffusion analysis, zone of inhibition (ZOI); format: cell-based, Staphylococcus aureus; details: for ZOI without 7.10-EODA / ZOI with 7.10-EODA: strain 001; for ZOI without 7.10-EODA: antibiotic ½×MIC alone; for ZOI with 7.10-EODA: antibiotic ½×MIC with 7,10-EODA ¼×MIC; for antimicrobial activity effect in combination with 7,10-EODA: antibiotic treated in combination with 7,10-EODA, Table 1 summary; for antimicrobial activity, disk diffusion: 100 μg each, FIG. 4
Description: as §1
Specifically, in order to compare the antimicrobial activity of the 7,10-EODA or the antibiotic of the present invention against the MDRSA 01ST001 strain, the MDRSA 01ST001 strain was treated with the 7,10-EODA (E 100 μg) of the present invention, streptomycin (S, 100 μg), ampicillin (A, 100 μg), oxacillin (O, 100 μg), vancomycin (V, 100 μg), or penicillin (P, 100 μg), according to the method described in Experimental Example 5.
as §2

[5] = tested on: MRSA 01ST001 (MDRSA 01ST001); experiment: Antimicrobial activity on solid medium (clear zone around filter paper); format: cell-based, Staphylococcus aureus; details: for clear zone on agar plate: 100 μg per filter paper, 37° C., 2 to 3 days, FIG. 1
Description: (§3) First, 1.5% of potato agar was added to the YDP medium, sterilized, and then an agar plate hardened by pouring about 20 ml in a plastic Petri dish was used. MRSA 01ST001 was diluted to about 107/ml, and then about 500 μl was dispersed evenly on the agar plate.
(§4) The size of the clear zone around the filter paper shown after the culture at 37° C. for 2 to 3 days after the inoculation was measured to confirm the degree of antimicrobial activity. At this time, vancomycin 100 μg, oxacillin 100 μg, ampicillin 100 μg, streptomycin 100 μg, and penicillin 100 μg were used as control groups.
(§5) The antimicrobial activity can be confirmed with the degree showing the clear zone on the agar plate. It is judged that the larger the clear zone, the higher the antimicrobial activity. The results are illustrated in FIG. 1 and FIG. 2.
(§6) The results are illustrated in FIG. 3. The experiment was carried out in the same manner as in Example 1-2.

[6] = tested on: Staphylococcus aureus ATCC 29213; experiment: as above; format: cell-based; details: FIG. 3
Description: as §3, §4, §5, §6

[7] = Staphylococcus aureus, ATCC29213, read-out: MIC
[8] = strain 001 (MDRSA 01ST001), antibiotic alone

Molecule | ZOI without 7.10-EODA [1] [mm] | MIC [2, 7] [µg/mL] | MIC ([3]; Staphylococcus aureus) [µg/mL] | ZOI without 7.10-EODA [4] [mm] | ZOI with 7.10-EODA [4] [mm] | ZOI with 7.10-EODA [1] [mm] | antimicrobial activity effect in combination with 7,10-EODA [4] | MIC [2] [µg/mL] | MIC [3, 8] [µg/mL] | clear zone on agar plate [5] | antimicrobial activity, disk diffusion [4] | degree of decrease of the MIC90 value of penicillin versus no 7,10-EODA ([3]; 7,10-EODA at 1/16 of its original MIC90) | degree of decrease of the MIC90 value of penicillin versus no 7,10-EODA ([3]; 7,10-EODA at ⅛ of its original MIC90) | MIC90 value of penicillin ([3]; 7,10-EODA not used in combination, OD600) [µg/mL] | MIC90 value of penicillin ([3]; in combination with 7.5 μg/mL 7,10-EODA (1/16 of its MIC90)) [µg/mL] | MIC90 value of penicillin ([3]; in combination with 15.0 μg/mL 7,10-EODA (⅛ of its MIC90)) [µg/mL] | antimicrobial activity on solid medium [6] | antimicrobial activity on solid medium ([5]; MDRSA 01ST001, FIG. 3)
CO[C@H]1/C=C/O[C@@]2(C)Oc3c(C)c(O)c4c(O)c(c(/C=N/N5CCN(C)CC5)c(O)c4c3C2=O)NC(=O)/C(C)=C\C=C\[C@H](C)[C@H](O)[C@@H](C)[C@@H](O)[C@@H](C)[C@H](OC(C)=O)[C@@H]1C [RIF, rifampicin] | 21.0 ± 0.8 | 5 (≈ 6.08 µM) | 5 (≈ 6.08 µM) | 18.3 ± 0.2 | 20.2 |  |  |  |  |  |  |  |  |  |  |  |  | 
O=C(O)c1cn(C2CC2)c2cc(N3CCNCC3)c(F)cc2c1=O [CIP, ciprofloxacin] | 9.6 ± 0.2 |  |  | 6.0 ± 0.0 | 13.2 | 13.2 | strong antimicrobial activity effect |  |  |  |  |  |  |  |  |  |  | 
CC1=C(C(=O)O)N2C(=O)[C@@H](NC(=O)[C@H](N)c3ccccc3)[C@H]2SC1 [CEP, cephalexin] | 15.3 ± 0.1 | 1.97 (≈ 5.67 µM) | 1000 (≈ 2880 µM) | 10.1 ± 1.3 | 13.1 | 15.3 |  |  |  |  |  |  |  |  |  |  |  | 
Oc1cc(Cl)ccc1Oc1ccc(Cl)cc1Cl [IRG, irgasan] | 11.1 ± 0.5 |  |  | 12.4 ± 0.3 | 13.8 | 10.0 |  | 0.1 (≈ 0.345 µM) | 0.1 (≈ 0.345 µM) |  |  |  |  |  |  |  |  | 
[H]/N=C(/N)N[C@H]1[C@H](O)[C@@H](O)[C@H](O[C@@H]2O[C@@H](C)[C@](O)(C=O)[C@H]2O[C@@H]2O[C@@H](CO)[C@H](O)[C@@H](O)[C@@H]2NC)[C@@H](N/C(N)=N\[H])[C@@H]1O [STP, streptomycin] | 6.0 ± 0.0 | 3 (≈ 5.16 µM) | 62.5 (≈ 107 µM) | 6.0 ± 0.0 | 12.9 | 11.4 | strong antimicrobial activity effect |  |  | no clear zone appeared | resistant |  |  |  |  |  |  | 
penicillin | 12.9 ± 0.4 |  |  | 7.1 ± 0.1 | 13.6 | 13.2 | strong antimicrobial activity effect | 0.5 | 1000.0 | no clear zone appeared | resistant | 1/32 | ¼ | 350 | 87.5 | 10.9 |  | 
COc1cc(Cc2cnc(N)nc2N)cc(OC)c1OC [TMP, trimethoprim] | 8.9 ± 0.1 | 7.8 (≈ 26.9 µM) | 7.8 (≈ 26.9 µM) | 6.0 ± 0.0 | 6.00 | 12.3 |  |  |  |  |  |  |  |  |  |  |  | 
CN[C@H](CC(C)C)C(=O)N[C@H]1C(=O)N[C@@H](CC(N)=O)C(=O)N[C@H]2C(=O)N[C@H]3C(=O)N[C@H](C(=O)N[C@H](C(=O)O)c4cc(O)cc(O)c4-c4cc3ccc4O)[C@H](O)c3ccc(c(Cl)c3)Oc3cc2cc(c3O[C@@H]2O[C@H](CO)[C@@H](O)[C@H](O)[C@H]2O[C@H]2C[C@](C)(N)[C@H](O)[C@H](C)O2)Oc2ccc(cc2Cl)[C@H]1O [vancomycin] |  |  |  |  |  |  |  |  |  | clear zone appeared |  |  |  |  |  |  | same antimicrobial activity | same antimicrobial activity
CN(C)CCCN1c2ccccc2Sc2ccc(Cl)cc21 [CPZ, chlorpromazine] | 6.0 ± 0.0 | 125 (≈ 392 µM) | 62.5 (≈ 196 µM) | 7.2 ± 0.1 | 12.0 | 8.05 |  |  |  |  |  |  |  |  |  |  |  | 
O=C(N[C@H](CO)[C@H](O)c1ccc([N+](=O)[O-])cc1)C(Cl)Cl [CPL, chloramphenicol] | 7.4 ± 0.2 | 10 (≈ 30.9 µM) | 10 (≈ 30.9 µM) | 13.2 ± 0.4 | 13.9 | 7.21 |  |  |  |  |  |  |  |  |  |  |  | 
